According to publication PMC2063130, “Reversal of P-glycoprotein-mediated multidrug resistance by XR9051, a novel diketopiperazine derivative” (British Journal of Cancer, 1998):

What was measured:
[1] = biological target: T1, P-glycoprotein (Cricetulus griseus, UniProt P21448); assay: radioligand filtration binding; no specific binding in parental AuxB1 membranes (Kd […] is quoted from earlier work)
T1 construct: gene ABCB1; CHrB30 plasma membranes

[2] = biological target: T1, P-glycoprotein; assay: displacement of [3H]vinblastine equilibrium binding, rapid filtration; conditions: read-out: EC50 (the source's name)

T1 sequence (P21448 whole entry): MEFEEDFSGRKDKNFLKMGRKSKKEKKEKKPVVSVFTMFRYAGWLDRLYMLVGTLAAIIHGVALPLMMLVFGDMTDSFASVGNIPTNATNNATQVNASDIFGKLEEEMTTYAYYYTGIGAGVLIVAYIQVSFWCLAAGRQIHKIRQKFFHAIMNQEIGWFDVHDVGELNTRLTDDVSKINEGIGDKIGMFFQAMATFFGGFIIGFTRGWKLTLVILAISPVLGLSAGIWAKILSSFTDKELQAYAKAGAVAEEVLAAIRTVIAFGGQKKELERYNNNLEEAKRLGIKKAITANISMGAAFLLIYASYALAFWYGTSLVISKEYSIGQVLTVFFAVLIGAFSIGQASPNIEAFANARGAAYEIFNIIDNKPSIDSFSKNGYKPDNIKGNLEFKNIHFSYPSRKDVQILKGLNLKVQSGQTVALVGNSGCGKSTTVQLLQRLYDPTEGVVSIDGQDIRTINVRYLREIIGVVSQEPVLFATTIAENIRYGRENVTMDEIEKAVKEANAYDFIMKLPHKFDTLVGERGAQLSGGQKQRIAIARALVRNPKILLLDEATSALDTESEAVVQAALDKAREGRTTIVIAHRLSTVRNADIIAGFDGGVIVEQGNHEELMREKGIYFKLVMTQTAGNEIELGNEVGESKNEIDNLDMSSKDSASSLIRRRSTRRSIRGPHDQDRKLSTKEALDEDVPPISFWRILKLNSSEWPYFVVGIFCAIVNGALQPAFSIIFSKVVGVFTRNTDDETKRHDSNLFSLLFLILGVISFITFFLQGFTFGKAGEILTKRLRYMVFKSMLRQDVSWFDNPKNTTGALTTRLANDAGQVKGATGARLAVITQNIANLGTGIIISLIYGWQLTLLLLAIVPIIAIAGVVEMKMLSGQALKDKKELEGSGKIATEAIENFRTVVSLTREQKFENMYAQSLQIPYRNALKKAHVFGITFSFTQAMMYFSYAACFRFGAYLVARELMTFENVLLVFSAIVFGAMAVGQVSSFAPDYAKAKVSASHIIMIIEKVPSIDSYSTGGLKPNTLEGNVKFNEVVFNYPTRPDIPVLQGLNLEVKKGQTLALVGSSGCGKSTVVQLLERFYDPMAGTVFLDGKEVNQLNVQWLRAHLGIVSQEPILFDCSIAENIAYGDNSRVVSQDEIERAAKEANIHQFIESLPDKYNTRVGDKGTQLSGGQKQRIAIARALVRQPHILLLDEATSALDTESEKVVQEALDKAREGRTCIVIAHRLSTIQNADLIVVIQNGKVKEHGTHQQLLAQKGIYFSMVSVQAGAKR

Compound	radioligand filtration binding; no specific binding in parental AuxB1 membranes [1]	IC50 [2] [nM]
CC[C@]1(O)C[C@@H]2CN(CCc3c([nH]c4ccccc34)[C@@](C(=O)OC)(c3cc4c(cc3OC)N(C)[C@H]3[C@@](O)(C(=O)OC)[C@H](OC(C)=O)[C@]5(CC)C=CCN6CC[C@]43[C@@H]65)C2)C1 [vinblastine]	A rapid filtration assay was used to determine the equilibrium	–
COc1cc2c(cc1OC)CN(CCc1ccc(NC(=O)c3cccc(/C=c4\[nH]c(=O)/c(=C/c5ccccc5)n(C)c4=O)c3)cc1)CC2 [XR9051, N-(4-(2-(6,7-Dimethoxy-1,2,3,4-tetrahydro-2-isoquinolyl)ethyl)phenyl)-3-((3Z,6Z)-6-benzylidene-1-methyl-2,5-dioxo-3-piperazinylidene) methylbenzamide]	–	1.4
